Experimental data reported in patent publication US9403866B2, “Compositions and methods for increasing telomerase activity” (Telomerase Activation Sciences, Inc., priority 2009, dated 2016).
Read-outs that look alike come from different tables or passages of the source.

Assay: Plasma levels and bioavailability in mice
Assay type: in vivo, male C57BL/6 mice
Conditions: male, C57BL/6, mouse, 10 mg/kg, 2% EtOH/98% water, read-out: Bioavailability % F
Experimental: The plasma levels of a compound following a single intravenous, oral, intra-peritoneal, or sub-cutaneous administration in male C57BL/6 mice was determined. Plasma samples were collected and used to determine the plasma concentration of the compound and metabolites. In addition tissue samples, including whisker samples, and peripheral blood mononuclear cells (PBMC) cells were collected for telomerase activity analysis.
[…] mice were divided into treatment groups. The mice were provided ad libitum SLAC-MO1 #W080208 (Shanghai Laboratories Animal Center, Shanghai, China) throughout the in-life portion of the study with the exception of the overnight fasting period prior to oral dosing. Water was available ad libitum.
Body weights were taken on the day of dose administration. Dose volume was determined based on individual body weight taken on day of dosing.
Blood samples (approximately 300 μL) were collected via cardiac puncture or via retro-orbital puncture after anesthesia into tubes containing K2-EDTA anticoagulant and 1 mg/ml NaF at the various time points after dosing. Blood was stored on ice and then plasma separated via centrifugation (8000 rpm×6 minutes). The plasma was stored at […] until LC-MS/MS analysis.

CC(C)C(N)C(=O)OC1CCC23CC24CCC2(C)C(C5(C)CCC(C(C)(C)O)O5)C(O)CC2(C)C4CC(O)C3C1(C)C (stereo not drawn) [Compound 4, 2-(L)-Amino-3-methyl-butyric acid 6α,16β-dihydroxy-17-[5-(1-hydroxy-1-methyl-ethyl)-2-methyl-tetrahydro-furan-2-yl]-4,4,13,14-tetramethyl-tetradecahydro-cyclopropa[9,10]cyclopenta[a]phenanthren-3β-yl ester]
bioavailability (PO): 48%
bioavailability (SC): 66%
